Experimental data from patent US20230114728A1 (Venatorx Pharmaceuticals, Inc., priority 2019, published 2023).
Converted amounts (≈) assume the structure as drawn. Like-named read-outs stand apart in the source and are kept apart here.

Key:
[1] = system: E. coli 901C; test: Broth microdilution MIC in CAMHB; type: cell-based; details: Escherichia coli, MHB, read-out: Minimum Inhibitory Concentration, E. coli 901C
In short: (§1)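 MIC, read by eye, is the lowest compound concentration giving no bacterial growth after 16-20 h at 37° C. Test compounds are serially diluted 2-fold in CAMHB and seeded with 2-8×10^5 CFU/mL of bacteria taken from a 3-5 h shaking culture, following CLSI methods.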

[2] = system: K. pneumoniae UMM producing SHV-5 and KPC-2; test: Broth microdilution MIC in CAMHB; type: cell-based; details: Klebsiella pneumoniae, read-out: Minimum Inhibitory Concentration, K. pneumoniae UMM
In short: as §1

[3] = system: E. coli D22; test: Broth microdilution MIC in CAMHB; type: cell-based; details: Escherichia coli, MHB, read-out: Minimum Inhibitory Concentration, E. coli D22
In short: as §1

[4] = system: P. aeruginosa ATCC 27853; test: Broth microdilution MIC in CAMHB; type: cell-based; details: Pseudomonas aeruginosa, ATCC27853; MHB; read-out: Minimum Inhibitory Concentration, P. aeruginosa ATCC 27853
In short: as §1

[5] = system: P. aeruginosa (ΔmexAB-oprM); test: Broth microdilution MIC in CAMHB; type: cell-based; details: Pseudomonas aeruginosa, read-out: Minimum Inhibitory Concentration, P. aeruginosa ΔmexAB-OprM
In short: as §1

[6] = system: P. aeruginosa ATCC 35151; test: Broth microdilution MIC in CAMHB; type: cell-based; details: Pseudomonas aeruginosa, ATCC35151; MHB; hyper-permeable strain; read-out: Minimum Inhibitory Concentration, P. aeruginosa ATCC 35151
In short: as §1

[7] = system: E. coli ATCC 25922; test: Broth microdilution MIC in CAMHB; type: cell-based
In short: as §1

[8] = system: A. baumannii ATCC 19606; test: Broth microdilution MIC in CAMHB; type: cell-based; details: Acinetobacter baumannii, ATCC19606; MHB; read-out: Minimum Inhibitory Concentration, A. baumannii ATCC 19606
In short: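 CLSI broth microdilution in CAMHB: 2-fold compound dilutions inoculated at 2-8×10^5 CFU/mL from 3-5 h log-phase cultures. Incubated at 37 °C for 16-20 h (Enterobacteriaceae, Pseudomonas); MIC read visually as lowest concentration without growth. Strains include hyper-permeable and efflux-deficient mutants.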

[9] = system: E. coli AG100A; test: Broth microdilution MIC in CAMHB; type: cell-based; details: Escherichia coli, read-out: Minimum Inhibitory Concentration, E. coli AG100A
In short: as §1

[10] = system: K. pneumoniae 848844 producing SHV-11 and KPC-2; test: Broth microdilution MIC in CAMHB; type: cell-based; details: Klebsiella pneumoniae, read-out: Minimum Inhibitory Concentration, K. pneumoniae 848844
In short: as §1

[11] = system: K. pneumoniae SI-117 producing VIM-1; test: Broth microdilution MIC in CAMHB; type: cell-based; details: Klebsiella pneumoniae, read-out: Minimum Inhibitory Concentration, K. pneumoniae SI-117
In short: as §1

[12] = system: E. coli AG100; test: Broth microdilution MIC in CAMHB; type: cell-based; details: Escherichia coli, MHB, read-out: Minimum Inhibitory Concentration, E. coli AG100
In short: as §1

[13] = molecular target: T1, E. coli K12 PBP3 (Escherichia coli, UniProt P0AD68); test: biochemical; type: binding
T1 construct: made in house
T1 sequence (P0AD68 1-577): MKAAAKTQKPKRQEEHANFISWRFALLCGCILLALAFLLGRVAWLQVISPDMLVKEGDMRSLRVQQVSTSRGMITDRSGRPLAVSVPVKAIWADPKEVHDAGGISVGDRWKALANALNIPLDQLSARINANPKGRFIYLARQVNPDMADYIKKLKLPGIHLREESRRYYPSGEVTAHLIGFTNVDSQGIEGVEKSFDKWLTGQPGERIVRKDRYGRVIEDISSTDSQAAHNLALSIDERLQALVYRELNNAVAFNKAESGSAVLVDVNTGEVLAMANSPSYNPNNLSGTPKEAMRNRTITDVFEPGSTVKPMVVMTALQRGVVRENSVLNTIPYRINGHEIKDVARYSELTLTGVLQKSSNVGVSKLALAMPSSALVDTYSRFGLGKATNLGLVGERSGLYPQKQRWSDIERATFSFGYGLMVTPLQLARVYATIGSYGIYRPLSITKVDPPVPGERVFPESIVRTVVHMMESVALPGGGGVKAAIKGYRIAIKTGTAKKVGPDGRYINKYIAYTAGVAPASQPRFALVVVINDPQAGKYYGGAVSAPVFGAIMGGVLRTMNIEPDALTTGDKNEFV
Text: Example I: Experimental Method for Penicillin-Binding Protein Binding Assays with Bocillin-FL Via Fluorescence Polarization
To determine the ability of boronic acid-based test PBP inhibitors to bind Penicillin Binding Proteins (PBPs), Bocillin-FL (fluorescently-labeled penicillin V; ThermoFisher Scientific) was used in a fluorescence polarization (FP) competition binding assay to assess inhibitor binding to PBP2, PBP3 or PBP4 from Escherichia coli (K12), PBP3 from Pseudomonas aeruginosa (PA01), PBP1a, PBP2 and PBP3 from Acinetobacter baumannii (ATCC 19606), and PBP2 from Neiserria gonorrheae (FA19). PBPs were cloned and purified as described previously (E. coli PBPs, King, D. T, et al., ACS Infectious Diseases 2015, 1, 175-184; P. aeruginosa PBP3, Han et. al., PNAS 2010, 107 (51), 22002-22007; A. baumannii PBPs, Penwell et. al., Antimicrob. Agents Chemother. 2015, 59 (3), 1680-1689; N. gonorrhoeae PBP2, Singh et. al., J Biol. Chem. 2019, 294 (38), 14020-14032). To establish assay conditions for competition binding, enzyme titration/saturation binding experiments were initially performed. Bocillin-FL was prepared at 0.2 μM in a buffer comprised of 50 mM Hepes (pH 8.0), 300 mM NaCl and 5% (v/v) glycerol for reactions with E. coli, P. aeruginosa and N. gonorrhoeae PBPs, and 25 mM Tris (pH 8.0), 200 mM NaCl and 10% (v/v) glycerol and 0.005% (v/v) Tween 20 for reactions with A. baumannii PBPs. Saturation binding was performed by mixing 40 μl of PBP solutions ranging in concentrations from 0-24 μM with 40 μl of the 0.2 μM Bocillin-FL solution, in individual wells of a black 384-well microplate. FP was measured immediately upon mixing (Excitation, 490 nm; Emission, 520 nm; g-factor, 0.96), using a Cytation3 (BioTek) microplate reader and measured continuously for up to 120 minutes. […] The competition binding assay (80 μl final volume) was validated using beta-lactams and PBPs at final concentrations of: 1.5 μM, E. coli PBP3; 0.75 μM, P. aeruginosa PBP3; 1 μM A. baumannii PBP1a; 2.5 μM A. baumannii PBP2; 0.2 μM A. baumannii PBP3; and […] N. gonorrhoeae PBP2. Bocillin-FL was at 0.1 μM (0.05 μM with A. baumannii PBP1a) and beta-lactam concentrations ranged from 0-1000 μM. […] Bocillin-FL was added and the FP immediately measured for up to 60 minutes (90 minutes for E. coli PBP2). […] The beta-lactam potency was reported as the concentration of beta-lactam required to reduce the amount of PBP bound-Bocillin-FL by 50% (EC50). […] Binding assays for boronic acid PBP inhibitors were performed in an identical fashion for the respective PBPs

[14] = molecular target: T2, P. aeruginosa PBP3 (Pseudomonas aeruginosa, UniProt G3XD46); test: Bocillin-FL fluorescence polarization competition binding assay, P. aeruginosa PBP3; details: fluorescence polarization competition binding assay using Bocillin-FL
T2 construct: made in house
T2 sequence (G3XD46 whole entry): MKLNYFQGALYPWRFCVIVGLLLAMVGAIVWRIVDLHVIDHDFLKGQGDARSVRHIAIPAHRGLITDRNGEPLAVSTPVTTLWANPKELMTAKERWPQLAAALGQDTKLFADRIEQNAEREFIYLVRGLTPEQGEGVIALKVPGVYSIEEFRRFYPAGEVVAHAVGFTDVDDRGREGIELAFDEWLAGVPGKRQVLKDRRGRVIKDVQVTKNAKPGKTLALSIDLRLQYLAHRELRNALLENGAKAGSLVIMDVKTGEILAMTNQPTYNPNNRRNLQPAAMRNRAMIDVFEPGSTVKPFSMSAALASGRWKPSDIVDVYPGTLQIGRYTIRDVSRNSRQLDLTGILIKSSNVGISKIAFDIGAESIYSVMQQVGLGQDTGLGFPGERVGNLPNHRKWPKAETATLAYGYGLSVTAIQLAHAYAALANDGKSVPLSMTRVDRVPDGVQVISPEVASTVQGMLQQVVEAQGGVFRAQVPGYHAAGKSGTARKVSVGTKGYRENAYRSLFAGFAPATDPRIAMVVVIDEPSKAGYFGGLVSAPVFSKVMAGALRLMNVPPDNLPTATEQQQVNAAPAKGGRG
In short: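 Binding of boronic acid inhibitors to purified Pseudomonas aeruginosa (PA01) PBP3 was measured by fluorescence polarization competition with Bocillin-FL, a fluorescent penicillin V. Reactions of 80 μl contained 0.75 μM PBP3 and 0.1 μM Bocillin-FL in 50 mM Hepes (pH 8.0), 300 mM NaCl and 5% (v/v) glycerol, in black 384-well plates. FP (Excitation 490 nm, Emission 520 nm) was read for up to 60 minutes. EC50 is the concentration that halves PBP-bound Bocillin-FL.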

Compound	MIC ([1]; hyper-permeable E. coli 901C) [µg/mL]	MIC [2] [µg/mL]	MIC ([3]; hyper-permeable E. coli D22) [µg/mL]	MIC [4] [µg/mL]	MIC [5] [µg/mL]	MIC [6] [µg/mL]	MIC ([7]; Escherichia coli, ATCC25922; MHB; E. coli ATCC 25922; read-out: Minimum Inhibitory Concentration, E. coli 25922) [µg/mL]	MIC [8] [µg/mL]	MIC [9] [µg/mL]	MIC [10] [µg/mL]	MIC [11] [µg/mL]	MIC ([12]; wild-type parent strain E. coli AG100) [µg/mL]	EC50 [13] [µM]	P. aeruginosa PBP3 Potency [14]	MIC ([1]; E. coli 901C (hyper-permeable)) [µg/mL]	MIC ([3]; E. coli D22 (hyper-permeable)) [µg/mL]	MIC ([7]; Escherichia coli, ATCC25922; E. coli ATCC 25922; MHB; read-out: Minimum Inhibitory Concentration, E. coli 25922) [µg/mL]	MIC ([12]; E. coli AG100 (wild-type parent)) [µg/mL]
C[C@H]1CN(CCN)C(=O)C(=O)N1C(=O)NC(C(=O)N[C@H]1Cc2cccc(C(=O)O)c2OB1O)c1c(F)cc(O)cc1F (stereo partly drawn) [Example 234, (3R)-3-(2-((S)-4-(2-aminoethyl)-6-methyl-2,3-dioxopiperazine-1-carboxamido)-2-(2,6-difluoro-4-hydroxyphenyl)acetamido)-2-hydroxy-3,4-dihydro-2H-benzo[e][1,2]oxaborinine-8-carboxylic acid]	32 to 64 (≈ 54.3 to 109 µM)	0.5 to 1 (≈ 0.848 to 1.7 µM)	8 to 16 (≈ 13.6 to 27.2 µM)	> 128	8 to 16 (≈ 13.6 to 27.2 µM)	2 to 4 (≈ 3.39 to 6.79 µM)	8 to 16 (≈ 13.6 to 27.2 µM)	> 128	32 to 64 (≈ 54.3 to 109 µM)	8 to 16 (≈ 13.6 to 27.2 µM)	2 to 4 (≈ 3.39 to 6.79 µM)	32 to 64 (≈ 54.3 to 109 µM)	< 30	D (D represents a potency <10 μM)				
O=C(O)c1cccc2c1OB(O)[C@@H](NC(=O)[C@H](NC(=O)N1CCN(CC(F)(F)F)C(=O)C1=O)c1c(F)cc(O)cc1F)C2 (single isomer, unassigned) [Example 215]		32 to 64 (≈ 52.1 to 104 µM)		> 128	32 to 64 (≈ 52.1 to 104 µM)	8 to 16 (≈ 13 to 26 µM)		> 128	2 to 4 (≈ 3.26 to 6.51 µM)	> 128	32 to 64 (≈ 52.1 to 104 µM)		< 30	C (C represents a potency between 10 and 30 μM)	< 0.25	2 to 4 (≈ 3.26 to 6.51 µM)	32 to 64 (≈ 52.1 to 104 µM)	32 to 64 (≈ 52.1 to 104 µM)
